Results as given in the supplement of paper PMC4862054.

How the values were obtained:
Settings in all cases: incubation time: 72 h
[1] = test system: BT-474; assay: normalised response (% of control), CellTox Green; higher = less cell death (100 = DMSO, 0 = benzethonium chloride kill control)
Summary of the method: (§1)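 Values are normalised signals, each belonging to one concentration of the series. Breast cancer cells (20 µl suspension) were seeded into 384-well plates with compound at 5 concentrations in 10-fold steps over a compound-specific 10,000-fold range and incubated 72 h. Readouts were CellTox Green fluorescence (485/520 nm), then CellTiter-Glo luminescence after 10 min at room temperature, with each plate set to 0.1 % DMSO as 100 and a positive kill control as 0.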

[2] = test system: BT-549; assay: as above
Summary of the method: as §1

[3] = test system: CAL-120; assay: as above
Summary of the method: as §1

[4] = test system: CAL-148; assay: as above
Summary of the method: as §1

[5] = test system: CAL-51; assay: as above
Summary of the method: as §1

[6] = test system: CAL-85-1; assay: as above
Summary of the method: as §1

[7] = test system: DU-4475; assay: as above
Summary of the method: as §1

[8] = test system: HCC1143; assay: as above
Summary of the method: as §1

[9] = test system: HCC1599; assay: as above
Summary of the method: as §1

[10] = test system: HCC1937; assay: as above
Summary of the method: as §1

[11] = test system: HDQ-P1; assay: as above
Summary of the method: as §1

[12] = test system: Hs578T; assay: as above
Summary of the method: as §1

[13] = test system: MCF-10A; assay: as above
Summary of the method: as §1

[14] = test system: MDA-MB-231; assay: as above
Summary of the method: as §1

[15] = test system: MDA-MB-436; assay: as above
Summary of the method: as §1

[16] = test system: MDA-MB-453; assay: as above
Summary of the method: as §1

[17] = test system: MDA-MB-468; assay: as above
Summary of the method: as §1

[18] = test system: MFM-223; assay: as above
Summary of the method: as §1

[19] = test system: BT-474; assay: normalised response (% of control), CellTiter-Glo; higher = more viable cells (100 = DMSO, 0 = benzethonium chloride kill control)
Protocol: (§2)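 DSRT, 72 h incubation, CellTox Green / CellTiter-Glo readout. Signal is normalised to DMSO and benzethonium chloride controls. Value is the normalised response at the highest dose.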

[20] = test system: BT-549; assay: as above
Protocol: as §2

[21] = test system: CAL-120; assay: as above
Protocol: as §2

[22] = test system: CAL-148; assay: as above
Protocol: as §2

[23] = test system: CAL-51; assay: as above
Protocol: as §2

[24] = test system: CAL-85-1; assay: as above
Protocol: as §2

[25] = test system: DU-4475; assay: as above
Protocol: as §2

[26] = test system: HCC1143; assay: as above
Protocol: as §2

[27] = test system: HCC1599; assay: as above
Protocol: as §2

[28] = test system: HCC1937; assay: as above
Protocol: as §2

[29] = test system: HDQ-P1; assay: as above
Protocol: as §2

[30] = test system: Hs578T; assay: as above
Protocol: as §2

[31] = test system: MCF-10A; assay: as above
Protocol: as §2

[32] = test system: MDA-MB-231; assay: as above
Protocol: as §2

[33] = test system: MDA-MB-436; assay: as above
Protocol: as §2

[34] = test system: MDA-MB-453; assay: as above
Protocol: as §2

[35] = test system: MDA-MB-468; assay: as above
Protocol: as §2

[36] = test system: MFM-223; assay: as above
Protocol: as §2

[37] = test system: SK-BR-3; assay: as above
Protocol: as §2

Compound	normalised response [1]	normalised response [2]	normalised response [3]	normalised response [4]	normalised response [5]	normalised response [6]	normalised response [7]	normalised response [8]	normalised response [9]	normalised response [10]	normalised response [11]	normalised response [12]	normalised response [13]	normalised response [14]	normalised response [15]	normalised response [16]	normalised response [17]	normalised response [18]	normalised response [19]	normalised response [20]	normalised response [21]	normalised response [22]	normalised response [23]	normalised response [24]	normalised response [25]	normalised response [26]	normalised response [27]	normalised response [28]	normalised response [29]	normalised response [30]	normalised response [31]	normalised response [32]	normalised response [33]	normalised response [34]	normalised response [35]	normalised response [36]	normalised response [37]
N[C@@H](Cc1ccc(N(CCCl)CCCl)cc1)C(=O)O [Melphalan] (12500 nM)	-70.3%	-143%	-41.5%	-8.15%	-37.5%	-78.3%	-7.06%	-23.3%	18.8%	-39.4%	-14.5%	-177%	-119%	-127%	-19.3%	-17.4%	-317%	-19.4%	2.03%	0.03%	3.52%	1.23%	0.13%	0.13%	0.09%	0.96%	0.01%	3.24%	0.84%	-0.1%	0.08%	0.1%	0.88%	0.28%	0.28%	0.21%	-0.14%
CN1CCc2c(c3ccccc3n2Cc2ccc(C(=O)NO)cc2)C1 [Tubastatin A] (10000 nM)	86.9%	87.1%	99.3%	80.1%	-14.9%	80.3%	93.7%	55.3%	90.1%	61.3%	106%	122%	99.6%	49.3%	79.8%	91.3%	41.7%	84.2%	75.4%	75%	84.1%	77.3%	39.3%	72.5%	79.9%	47.1%	85.3%	70.1%	73.3%	87.9%	98.5%	72%	72.3%	57.4%	66.4%	87%	42.2%
CCc1c(C(=O)C(N)=O)c2c(OCC(=O)O)cccc2n1Cc1ccccc1 [Varespladib] (10000 nM)	99.6%	103%	104%	98.3%	108%	93.6%	97.5%	103%	102%	72.7%	97.1%	121%	110%	102%	105%	101%	109%	90%	99.2%	99.8%	115%	109%	97.3%	104%	91.3%	101%	95.1%	96.7%	98.8%	99.3%	100%	95.7%	101%	102%	97.7%	105%	103%
